These are literature values, as cited in PMC7956819, “Peptides from the Intestinal Tract of Breast Milk-Fed Infants Have Antimicrobial and Bifidogenic Activity” (International Journal of Molecular Sciences, 2021).

For this data set the following is noted: function listed in the MBPDB for the identical sequence; not tested here; cited from earlier work. The source says:
page 3: Ta ble S1. List of known bioactive peptides in the infant intestinal samples.

“Also recorded” adds a separate entry of the source.

With YQEPVLGPVRGPFPI, the “Function (known bioactive peptides in the infant intestinal samples)” value (“Function” for short) was “Antimicrobial”.
Turning to IIAEKTKIPAVF, the “Function” value is reported as “Antimicrobial”.
As for IQPKTKVIPYVR, the “Function” value is “Antimicrobial”.
Regarding VYPFPGPIPN, the “Function” value was “ACE-inhibitory; also recorded: Antioxidant”.
Turning to VENLHLPLPLL, the “Function” value is given as “ACE-inhibitory”.
With LVYPFPGPI, the “Function” value is reported as “ACE-inhibitory”.
Turning to YQKFPQY, the “Function” value is listed as “ACE-inhibitory; also recorded: Antioxidant”.
For the substance TKKTKLTEEEKNRL, the “Function” value is “Antimicrobial”.
Regarding LIVTQTMK, the “Function” value is listed as “Cytotoxic”.
In the case of SDIPNPIGSENSEK, the “Function” value was “Antimicrobial”.
Regarding IKHQGLPQEV, the “Function” value was “Antimicrobial”.
On to FVAPFPEVFG, for which the “Function” value is “ACE-inhib itory”.
For the substance ALPMHIR, the “Function” value is “ACE-inhibitory; also recorded: Cell-proliferative”.
Take LKPTPEGDL: the “Function” value is “DPP-IV-inhibitory”.
Regarding VYVEELKPTPEGDLEILLQK, the “Function” value is “Hypocholesterolemic”.
As to IQKVAGTW, the “Function” value is “ACE-inhibitory; also recorded: DPP-IV-inhibitory”.
For NLHLPLP, the “Function” value was “ACE-inhibitory”.
On to ENLHLPLPLL, for which the “Function” value is on record as “ACE-inhibitory”.
Turning to EPVLGPVRGPFP, the “Function” value is recorded as “ACE-inhibitory”.
On to LRLKKYKVPQL, for which the “Function” value is on record as “Antimicrobial”.
With QVVPYPQ, the “Function” value is reported as “Antioxidant”.
For the substance VLVLDTDYK, the “Function” value was “Antimicrobial; also recorded: DPP-IV-inhibitory”.
As to QELLLNPTHQIYPVTQPLAPVHNPISV, the “Function” value is on record as “Antimicrobial”.
Turning to NLHLPLPLL, the “Function” value is “ACE-inhibitory”.
As for MAIPPKKNQDKTEIPTINT, the “Function” value is given as “Antimicrobial”.
As to AMKPWIQPK, the “Function” value is recorded as “ACE-inhib itory”.
AASDISLLDAQSAPLR: the “Function” value is recorded as “Antimicrobial”.
For the substance FSDKIAK, the “Function” value is “ACE-inhibitory; also recorded: Antimicrobial”.
As for FFVAPFPEVFGK, the “Function” value is given as “ACE-inhib itory”.
For the substance ALNEINQFYQK, the “Function” value is “ACE-inhibitory”.
Regarding VLGPVRGPFP, the “Function” value is listed as “ACE-inhibitory”.
As for LDIQKVAGTW, the “Function” value is given as “ACE-inhibitory”.
As for MPFPKYPVEP, the “Function” value is on record as “ACE-inhibitory”.
Consider INNQFLPYPY, for which the “Function” value is “DPP-I V-inhibitory”.
For TVYTKGRVMP, the “Function” value was “ACE-inhibitory”.
On to DAQSAPLRVY, for which the “Function” value is “ACE-inhibitory”.
With YANPAVVRP, the “Function” value is “ACE-inhibitory”.
Regarding YQEPVLGPVRGPFPIIV, the “Function” value was “ACE-inhibitory; also recorded: Antimicrobial; also recorded: Antithrombin; also recorded: Immunomodulatory”.
Turning to LENLHLPLP, the “Function” value was “ACE-inhibitory”.
Regarding GLDIQKVAGT, the “Function” value was “Antimicrobial”.
Regarding PVVVPPFLQPE, the “Function” value is listed as “Antimicrobial”.
